Converted amounts (≈) assume the structure as drawn.
How the values were obtained:
[1] = tested on: selected microorganisms; test: MIC antimicrobial assay (NCCLS microdilution broth method); assay type: cell-based
Method: 2. MIC Anitimicrobial Assay
The in vitro antimicrobial activity of the compounds was determined by the microdilution broth method following the test method from the National Committee for Laboratory Standards (NCCLS). This method is described in the NCCLS Document M7-A2, Vol.10, No.8 "Methods for Dilution Antimicrobial Susceptibility Test for Bacteria that Grow Aerobically--Second Edition."
In this method two-fold serial dilutions of drug in cation supplemented Mueller-Hinton broth are added to wells in microdilution trays. The test organisms are prepared by adjusting the turbidity of actively growing broth cultures so that the final concentration of test organism after it is added to the wells is approximately 5×10^4 CFUs/well).
Following inoculation of the microdilution trays, the trays are incubated at 35° C. for 16-20 hours and then read. […] The amount of growth in the wells containing the test compound is compared with the amount of growth in the growth-control wells (no test compound) used in each tray.

[2] = molecular target: T1, Kinase A and Spo0F (Bacillus subtilis, UniProt P16497); test: Autophosphorylation of Kinase A and transphosphorylation of Spo0F assay (HPK in vitro assay); assay type: biochemical; settings: inhibitor concentrations from 1 to 500 μM, [32P]ATP, phosphoimager
T1 construct: made in house; host or cells: E. coli (recombinant, overexpressing)
T1 sequence (P16497 1-606): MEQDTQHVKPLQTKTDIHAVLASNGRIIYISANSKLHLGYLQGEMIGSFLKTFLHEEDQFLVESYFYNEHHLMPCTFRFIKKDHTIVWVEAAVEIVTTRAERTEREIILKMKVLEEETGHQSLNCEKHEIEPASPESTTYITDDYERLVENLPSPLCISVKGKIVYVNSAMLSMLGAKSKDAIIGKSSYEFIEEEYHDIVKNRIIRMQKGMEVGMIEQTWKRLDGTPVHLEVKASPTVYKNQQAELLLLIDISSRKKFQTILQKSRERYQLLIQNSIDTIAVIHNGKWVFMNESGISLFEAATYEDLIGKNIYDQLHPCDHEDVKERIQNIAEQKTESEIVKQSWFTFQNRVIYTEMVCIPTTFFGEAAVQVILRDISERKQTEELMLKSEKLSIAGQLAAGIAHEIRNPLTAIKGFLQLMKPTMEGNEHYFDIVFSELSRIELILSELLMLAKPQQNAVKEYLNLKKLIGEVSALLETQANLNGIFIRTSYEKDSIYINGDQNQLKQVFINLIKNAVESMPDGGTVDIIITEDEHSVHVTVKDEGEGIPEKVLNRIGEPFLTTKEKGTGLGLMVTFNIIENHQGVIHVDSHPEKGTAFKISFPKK
Method: 1. Autophosphorylation of Kinase A and Transphosphorylation of Spo0F Assay
To study the effect of the compounds of the present invention on the signal transduction process in bacteria, the inhibiting effect of the compounds on the sporulation operon proteins Kinase A and Spo0F was examined. Specifically, the inhibition of autophosphorylation of Kinase A and the transphosphorylation of Spo0F was determined in the following assays. The Spo0F response regulator is the primary substrate for phosphorylation by the protein kinase, Kin A, involved in the sporulation process in bacteria. See D. Burbulys, K. A. Trach, J. A. Hoch, Cell, 64, 545-552 (1991). Spo0F and KinA were prepared from recombinant E. coli overexpressing the proteins (J. Cavanagh et al, Amino Acids, 6, 131-140 (1994) and references therein).
The following stock reagents were either prepared and used promptly or stored at the indicated temperature:
8 X Salts : 2M KCl (5 mL), 1M MgCl2 (800 mL), 1M CaCl2 (100 mL), 10 mg/mL phenylmethylsulfonyl fluoride (200 mL), 1 M dithioreitol (50 mL), 0.25M Na2 EDTA (32 mL) and H2 O mL (-20° C.)
5×Loading Dye: 0.5M TRIS-HCl-pH 6.8 (7.5 mL), 10% SDS (2 mL) 0.1% bromophenol blue (0.5 mL), 100% glycerol (3 mL) and 12.5 M 2-mercaptoethanol (0.3 mL)
1-1.3 mg/mL KinA:15 mM TRIS-HCl, pH 8.0, 6 mM KCl; 4 mM 2-mercaptoethanol; 40% glycerol (-20° C.)
1 mg/mL Spo0F: 17.5 mM TRIS-HCl, pH 8.0; 0.7 mM KCl; 0.7 mM MgCl2; 0.7 mM CaCl2; 5mM 2-mercaptoethanol; 30% Glycerol (-20° C.)
5% Stacking Gel: 40% 29:1 acrylamide:bis acrylamide (1.25 mL), 0.5M TRIS-HCl, pH 6.8 (2.5 mL), 10% SDS (0.1 mL), D-H2 O (6.15 mL) 10% ammonium persulfate (100 mL) and TEMED (25 mL) SDS Running Buffer: TRIS-BASE (3.02 g), glycine (14.4 g) SDS (1 g), D-H2 O (to 1L)
The reaction mixture was prepared from 8×Salts (87 μL), 1M TRIS, pH 8 (118 μL), 50% glycerol (63 μL), Spo0F (14.1 μL) and KinA (7.0 μL). Microcentrifuge tubes were charged with the reaction mixture (18.5 μL) and a 1.0 mM solution of the test compound in 5% DMSO (18.5 μL), and incubated for 15 min on ice. 100 mM ATP solution (3.0 μl, containing 625 μCi [^32 P]ATP) was added, and the mixture left for 10 minutes at room temperature. The reaction was quenched with 5×loading dye (10 μL per tube) and the samples were loaded on a prepared 5% Stacking Gel, or stored on dry ice until ready for use. The prepared wells were filled with SDS Running Buffer, samples were loaded into the wells, and 80 volts were applied to the gel until the dye front reached the bottom of the stacking gel. The voltage was then increased to 250 volts until electrophoresis was complete. Radioactive bands in the gel corresponding to phosphorylated KinA and Spo0F were imaged and quantitated with a phosphoimager.
If either enzyme was inhibited (as evidenced by the absence of labelled protein in the developed gel), an IC50 was calculated by running the assay with a range of inhibitor concentrations from 1 to 500 μM. After electrophoresis of the reaction mixtures, percent inhibition was determined by measuring the concentration of radioactive phosphorus with a phosphoimager and calculating the values using a software program (BioRad Molecular Analyst).

| SMILES | IC50 [2] [µM] | MIC [1] [µg/mL] |
| --- | --- | --- |
| N=C(N)NCCc1ccc(OCCC(c2ccc(Cl)cc2)(c2ccc(Cl)cc2)c2ccc(Cl)cc2)cc1 [Example 9, N-(2-(4-(3,3,3-tris(4-chlorophenyl)propoxy)-phenyl)ethyl)guanidine] | 21 | 8 (≈ 14.5 µM) |
| c1ccc(C(CCOc2ccc(CCc3nnn[nH]3)cc2)(c2ccccc2)c2ccccc2)cc1 [Example 27, 5-{2-[4-(3,3,3-Triphenylpropoxy)phenyl]ethyl}-1H-tetrazole] | 11 | 8 to 64 (≈ 17.4 to 139 µM) |
| O=C(O)/C=C/c1ccc(OCCC(c2ccccc2)(c2ccccc2)c2ccccc2)cc1 [Example 22, trans 4-(3,3,3-Triphenylpropoxy)cinnamic acid] | 71 | 4 to 64 (≈ 9.21 to 147 µM) |
| c1ccc(C(CCOc2ccc(Cc3nnn[nH]3)cc2)(c2ccccc2)c2ccccc2)cc1 [Example 32, 5-[4-(3,3,3-Triphenylpropoxy)phenyl]methyl-1H-tetrazole] | 19 | 8 to 64 (≈ 17.9 to 143 µM) |
| O=C(O)CCCc1ccc(OCCC(c2ccccc2)(c2ccccc2)c2ccccc2)cc1 [Example 15, 4-[4-(3,3,3-Triphenylpropoxy)phenyl]butyric acid] | 14 | 8 to 64 (≈ 17.8 to 142 µM) |
| O=C(O)C(=Cc1ccc(OCCC(c2ccccc2)(c2ccccc2)c2ccccc2)cc1)C(=O)O [Example 31, [4-(3,3,3-Triphenylpropoxy)benzylidene]malonic acid] | 54 | > 128 |
| c1ccc(C(CCOc2ccc(CCC3=NCCCO3)cc2)(c2ccccc2)c2ccccc2)cc1 [Example 26, 4,5-Dihydro-2-{2-[4-(3,3,3-triphenylpropoxy)-phenyl}ethyl}-1,3-oxazine] | 43 | 8 to 16 (≈ 16.8 to 33.6 µM) |
| O=C(O)Cc1ccccc1OCCC(c1ccccc1)(c1ccccc1)c1ccccc1 [Example 36, 2-(3,3,3-Triphenylpropoxy)phenylacetic acid] | 45 | 16 to 32 (≈ 37.9 to 75.7 µM) |
| O=C(O)CCc1ccc(OCCC(c2ccccc2)(c2ccccc2)c2ccccc2)cc1 [Example 12, 3-[4-(3,3,3-Triphenylpropoxy)phenyl]propionic acid] | 51 | 2 to 16 (≈ 4.58 to 36.7 µM) |
| N=C(N)NCCc1ccc(OCCCCC(c2ccccc2)(c2ccccc2)c2ccccc2)cc1 [Example 10] | 15 | 2 to 4 (≈ 4.19 to 8.37 µM) |
| N=C(N)NCCc1ccc(OCCC(c2ccccc2)(c2ccccc2)c2ccccc2)cc1 [Example 5] | 5 | 1 to 2 (≈ 2.22 to 4.45 µM) |
| NCCc1ccc(NC(=O)CC(c2ccccc2)(c2ccccc2)c2ccccc2)cc1 [Example 16, N-[4-(2-Aminoethyl)phenyl]-3,3,3triphenylpropionamide] | 59 | 32 to 64 (≈ 76.1 to 152 µM) |
| C1=C(c2ccc(OCCC(c3ccccc3)(c3ccccc3)c3ccccc3)cc2)CCNC1 [Example 2, 4-[4-(3,3,3-Triphenylpropyloxy)phenyl]-1,2,3,6-tetrahydropiperidine] | 170 | – |

More lines, main results first:

| IC50 [2] [µM] | SMILES | MIC [1] [µg/mL] |
| --- | --- | --- |
| 73 | O=C(O)C(O)c1ccc(OCCC(c2ccccc2)(c2ccccc2)c2ccccc2)cc1 (stereo not drawn) [Example 37, 2-[4-(3,3,3-Triphenylpropoxy)phenyl]glycolic acid] | – |
| 260 | c1ccc(C(CCOc2ccc(CCC3=NCCO3)cc2)(c2ccccc2)c2ccccc2)cc1 [Example 19, 4.5-Dihydro-2-{2-[4-(3,3,3-triphenylpropoxy)-phenyl]ethyl} oxazole] | – |
| 80 | NCCc1cccc(OCCC(c2ccccc2)(c2ccccc2)c2ccccc2)c1 [Example 7, 2-(3-(3,3,3-triphenylpropoxy)phenyl)ethylamine] | – |
| 290 | O=C(O)c1ccc(OCCC(c2ccccc2)(c2ccccc2)c2ccccc2)cc1 [Example 21, 4-(3,3,3-Triphenylpropoxy)benzoic acid] | – |
| 18 | O=C1NC(=O)C(c2ccc(OCCC(c3ccccc3)(c3ccccc3)c3ccccc3)cc2)S1 (stereo not drawn) [Example 41, 5-[4-(3,3,3-Triphenylpropoxy)phenyl]thiazolidine-2,4-dione] | – |
| 13 | NCCCc1ccc(SCCC(c2ccccc2)(c2ccccc2)c2ccccc2)cc1 [Example 40, 3-[4-(3,3,3-Triphenylpropylthio)phenyl]propylamine] | – |
| 85 | O=C(O)c1c(O)cccc1OCCC(c1ccccc1)(c1ccccc1)c1ccccc1 [Example 42, 2-Hydroxy-6-(3,3,3-triphenylpropoxy)benzoic acid] | – |
| 20 | O=C(O)COc1ccccc1OCCC(c1ccccc1)(c1ccccc1)c1ccccc1 [Example 45, 2-(3,3,3-triphenylpropoxy)phenoxyacetic acid] | – |
| 27 | O=C(O)CCc1ccccc1OCCC(c1ccccc1)(c1ccccc1)c1ccccc1 [Example 38, 3-[2-(3,3,3-Triphenylpropoxy)phenyl]propionic acid] | – |
| 150 | NCCc1ccc(OCCC(c2ccc(Cl)cc2)(c2ccc(Cl)cc2)c2ccc(Cl)cc2)cc1 [Example 6] | – |
| 16 | O=C(O)CCCOc1cccc(OCCC(c2ccccc2)(c2ccccc2)c2ccccc2)c1 [Example 46, 4-[3-(3,3,3-triphenylpropoxy)phenoxy]butyric acid] | – |
| 200 | O=C(CC(c1ccccc1)(c1ccccc1)c1ccccc1)Nc1ccc(N2CCNCC2)cc1 [Example 1, 4-[4-(3,3,3-Triphenylpropanoylamino)phenyl]piperazine] | – |
| 71 | O=C(O)COc1cccc(OCCC(c2ccccc2)(c2ccccc2)c2ccccc2)c1 [Example 44, 3-(3,3,3-triphenylpropoxy)phenoxyacetic acid] | – |
| 40 | O=C(O)/C=C/c1cccc(OCCC(c2ccccc2)(c2ccccc2)c2ccccc2)c1 [Example 43, trans 3-(3,3,3-Triphenylpropoxy)cinnamic acid] | – |
| 19 | NCc1ccc(OCCC(c2ccccc2)(c2ccccc2)c2ccccc2)cc1 [Example 4, 4-(3,3,3-triphenylpropoxy)benzylamine] | – |
| 110 | c1ccc(C(CCOc2ccc(-c3nnn[nH]3)cc2)(c2ccccc2)c2ccccc2)cc1 [Example 39, 5-[4-(3,3,3-Triphenylpropoxy)phenyl]-1H-tetrazole] | – |
| 21 | N=C(N)NCCc1ccc(OCCCC(c2ccccc2)(c2ccccc2)c2ccccc2)cc1 [Example 11] | – |
